Data: patent publication US20050107394A1, “Novel use of selective pde5 inhibitors” (priority 2001, published 2005)
“Also recorded” adds a separate entry of the source.

Legend:
[1] = system: patients with chronic thromboembolism and displaying secondary PHT; assay: Pulmonary vascular resistance (delta PVR, right cardiac catheterization) in patients with chronic thromboembolism; type: in vivo, human; details: for effect on pulmonary vascular resistance: 7 patients with CTEPH; for vascular resistance (PVR), reduction: 7 patients, PGI i.v. 6 ng/kg/min, NO 20 ppm inhaled, sildenafil 50 mg oral
Procedure: (§1) FIG. 4: Result of measurement of the arterial oxygen partial pressure (PaO2) on 7 patients with chronic thromboembolism and displaying secondary PHT (pulmonary hypertension). The arterial oxygen partial pressure was improved by NO (inhaled) [20 ppm] and sildenafil (oral) [50 mg] by respectively 1.8% and 7.6%, whereas the oxygen saturation fell by 13% after administration of PGI (intravenous). In the same experiment, the vascular resistance was measured and determined as delta PVR by a right cardiac catheterization. The vascular resistance was reduced respectively by 25%, 19% and 21% after administration of PGI (intravenous) [6 ng/kg bodyweight/min], NO (inhaled) [20 ppm] and sildenafil (oral) [50 mg].
(§2) 7 patients with CTEPH underwent a Swan-Ganz catheter investigation with measurement of the ventilation/perfusion (V/Q) distribution (using the multiple inert gas elimination technique (MIGET)). After determination of the baseline parameters (haemodynamics and gas exchange), all the patients initially inhaled 20 ppm NO, followed by a second baseline period (10-15 min), and then PGI was infused (6 ng/kg bodyweight/min), again followed by a second baseline period (10-15 min) and then an oral dose of 50 mg of sildenafil was given (120-150 min follow-up). 3 of the 7 patients were controlled by continuous nasal oxygen therapy in order to reach an arterial oxygenation of >88%. The following parameters were measured under baseline conditions: mean pulmonary arterial pressure (mPAP) 52.1 +/−3.3 mmHg, cardiac index (CI) 2.2+/−0.1 |* min^−1*m^−2, pulmonary vascular resistance index (PVRI) 1703.8+/−129.5 dyn*s*cm^−6*m^2, arterial pO2 72.5+/−3.3 mmHg and mixed venous oxygen saturation (SvO2) of 63.4+/−2.2%.

[2] = system: patients with ILD displaying secondary PHT; assay: Pulmonary vascular resistance in patients with ILD; type: in vivo, human; details: 7 patients with ILD
Procedure: as §2, with “ILD” for “CTEPH”, “5” for “3”, “39.6+/−2.8 mmHg and” for “52.1 +/−3.3 mmHg, cardiac index (CI) 2.2+/−0.1 |* min^−1*m^−2,”, “1255+/−215 dyn*s*cm−5*m^2.” for “1703.8+/−129.5 dyn*s*cm^−6*m^2, arterial pO2 72.5+/−3.3 mmHg and mixed venous oxygen saturation (SvO2) of 63.4+/−2.2%.”
By contrast, PGI (intravenous) increased the lung areas from 7% to almost 20% and thus caused a deterioration in matching (FIG. 5). Corresponding to the matching, PGI reduced the O2 saturation by 12%, whereas NO brought about an improvement of 5% and sildenafil one of 15% (FIG. 6).

[3] = system: patients with chronic thromboembolism and displaying secondary PHT; assay: Low V/Q perfusion by MIGET in patients with chronic thromboembolism; type: in vivo, human; details: for effect on low-V/Q perfusion / ventilation/perfusion distribution (words): 7 patients with CTEPH; for low V/Q perfusion (MIGET), level reached: 7 patients, control 3.25%, PGI i.v. 6 ng/kg/min, NO 20 ppm inhaled, sildenafil 50 mg oral
Procedure: FIG. 3: Result of determination of the low V/Q perfusion measured by the inert gas exchange method (MIGET) [Wagner et al. J Appl Physiol. 1974;36:588-99] from 7 patients with chronic thromboembolism and displaying secondary PHT (pulmonary hypertension). Compared with the control group (3.25%), the shunting was increased with PGI (i.v.) [6 ng/kg bodyweight/min] to 19%, with NO (inhaled) [20 ppm] to 5.3% and with sildenafil (oral) [50 mg] to 5.3%.
as §2

[4] = system: bleomycin-induced pulmonary fibrosis in rabbits; assay: Oxygenation index (PaO2/FiO2) in bleomycin-induced pulmonary fibrosis; type: in vivo, rabbit; details: for effect on O2 saturation: FIG. 2; for oxygenation index (PaO2/FiO2), raised compared with the control (190): NO 20 ppm inhaled, sildenafil 1 mg/kg oral
Procedure: FIG. 2: Result of determination of the oxygenation index (arterial oxygen partial pressure/fraction of inspired oxygen [PaO2/FiO2]) measured in the model of bleomycin-induced pulmonary fibrosis in rabbits. Whereas systemic PGI (6 ng/kg body weight/min] (PGI, prostacyclin) reduces the oxygenation index by 60% compared with the control (190), the oxygenation index was markedly raised by inhaled NO [20 ppm] by 28% and sildenafil (oral) [1 mg/kg body weight] by 31%.
Healthy rabbits of both sexes were pretreated orally with a gyrase inhibitor (Baytril®) for one week. Ten animals pretreated in this way were not treated with bleomyin and served as control, and, on the day of exposure, the others were anaesthetized with a Ketanest®/Rompun® mixture, intubated intratracheally and ventilated mechanically. An ultrasonic nebulizer (MMAD 2.5 μm) was used to administer by inhalation exactly 1.8 U/kg of bodyweight of bleomycin under volume-controlled ventilation. After 4, 8, 16, 24, 32 and 64 days (in each case n≧5) post exposure, the animals were again anaesthetized, provided with an arterial access (right carotid artery) and underwent bodyweight-adapted ventilation via a tracheostomy in a volume-controlled method. The arterial pO2 and pCO2, and the static compliance of the lung were measured (by recording the intrathoracic pressure and with slow inflation/deflation manoeuvres). Subsequently, the lungs of these animals were dissected and perfused with a Krebs Hensefeit buffer. Under these conditions, the capillary filtraton coefficient (cfc) was then found from the weight gain of the organ after increasing the pulmonary venous pressure by 7.5 mmHg, and the peak ventilation pressure was found. After completion of these measurements, the left main bronchus was ligated in the end-inspiratory position and a bronchoalveolar lavage (BAL) was performed on the right lung. Subsequently, the large vessels and airways of the right lung were dissected off and the organ was homogenized. The left lung was perfusion-fixed with 4% formalin solution while maintaining a pressure gradient of 25 cm H2O and was then stored in 4% formalin until embedded. Firstly, the cells were removed from the BAL, counted and differentiated via a Papenheim stain. The cell-free BAL supernatant was then aliquoted and submitted to further analysis of the surfactant and coagulation properties and a determination of the matrix metallo proteinases (MMPs) and their inhibitors (TIMPs) and of soluble collagen. Bronchoalveolar deposition of 1.8 U/kg of bodyweight of bleomycin led initially to development of an ARDS-like event, with a massive restriction of gas exchange (paO2/FiO2 of >500 mmHg in the controls reduced to ˜110 mmHg on day 4), ground-glass opacities over all sections of the lung in the HRCT and an increase of about 5-fold in the capillary filtration coefficient (cfc). In the later phase of bleomycin-induced lung damage there was then development of pronounced fibrosis which could be confirmed on the basis of the increase in soluble collagen in the BAL and the hydroxyproline in the tissue, on the basis of the histological specimens and of the HRCT findings. […] Consistent with this, a pronounced increase in the extracellular matrix and an alveolar and also interstitial ingress of fibroblasts was observable in the histological sections. Besides the homogeneously distributed zones of fibrosis there were also thin hyperdistended sections of lung with a honeycomb appearance.
Systemically administered PGI (vasodilatator) increased the shunting to about 30%. […] The data for O2 saturation (FIG. 2) correspond directly.

[5] = system: patients with chronic thromboembolism and displaying secondary PHT; assay: Arterial oxygen partial pressure in patients with chronic thromboembolism; type: in vivo, human; details: 7 patients; for effect on arterial oxygen partial pressure: FIG. 4; for arterial oxygen partial pressure (PaO2), improvement: NO 20 ppm inhaled, sildenafil 50 mg oral
Procedure: as §1, §2

SMILES | effect on pulmonary vascular resistance [1] | vascular resistance (PVR), reduction [1] [%] | effect on pulmonary vascular resistance [2] | pulmonary vascular resistance (PVR), reduction [2] | effect on low-V/Q perfusion / ventilation/perfusion distribution (words) [3] | low V/Q perfusion (MIGET), level reached [3] [%] | effect on O2 saturation [4] | oxygenation index (PaO2/FiO2), reduction compared with the control (190) ([4]; PGI 6 ng/kg/min systemic) [%] | arterial oxygen partial pressure / oxygen saturation, decrease ([5]; PGI intravenous 6 ng/kg/min) [%] | oxygenation index (PaO2/FiO2), raised compared with the control (190) [4] [%] | effect on arterial oxygen partial pressure [5] | arterial oxygen partial pressure (PaO2), improvement [5] [%] | effect on low-V/Q perfusion / ventilation/perfusion distribution (words) ([3]; listed as Sildenafil)
CCCCC[C@H](O)/C=C/[C@@H]1[C@H]2C/C(=C/CCCC(=O)O)O[C@H]2C[C@H]1O [PGI, prostacyclin] | marked reduction | 25 | marked reduction | about 25% | greatly increased | 19 | reduced O2 saturation | 60 | 13 | – | – | – | –
[N]=O [NO, nitric oxide] | marked reduction | 19 | marked reduction | about 25% | virtually unchanged; also recorded: increased slightly | 5.3 | marked increases in O2 saturation | – | – | 28 | not changed | 1.8 | –
CCCc1nn(C)c2c(=O)[nH]c(-c3cc(S(=O)(=O)N4CCN(C)CC4)ccc3OCC)nc12 [sildenafil, 5-[2-ethoxy-5-(4-methyl-1-piperazinyl-sulphonyl)phenyl]-1-methyl-3-n-propyl-1,6-dihydro-7H-pyrazolo[4,3-d]pyrimidin-7-one] | marked reduction | 21 | marked reduction | about 25% | virtually unchanged | 5.3 | marked increases in O2 saturation | – | – | 31 | increased | 7.6 | same effect as NO (inhaled)
